Several values for one entry are separate records, joined by “and”; a condition that tells them apart may be missing. Equal values may be shown once.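 Following 48 hours of exposure in 96-well plates, responses at five concentrations were used to interpolate endpoints linearly. The concentration for 50% growth inhibition is given as GI50. TGI: concentration producing complete growth inhibition.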
Legend:
Assay in all cases: NCI tumour cell line growth inhibition, 48 h
[1] = system: MALME-3M melanoma
[2] = system: EKVX NSCLC
[3] = system: OVCAR-5 ovarian
[4] = system: K-562 leukemia
[5] = system: NCI-H522 lung
[6] = system: SF-295 CNS
[7] = system: UACC-257 melanoma
[8] = system: HCT-15 colon
[9] = system: HCC-2998 colon
[10] = system: SK-MEL-2 melanoma

SMILES	GI50 [1]	TGI [1]	GI50 [2]	TGI [2]	GI50 [3]	TGI [3]	GI50 [4]	TGI [4]	GI50 [5]	TGI [5]	GI50 [6]	TGI [6]	GI50 [7]	TGI [7]	GI50 [8]	TGI [8]	GI50 [9]	TGI [9]	GI50 [10]	TGI [10]
CN(C)c1ccc(-c2cc(-c3ccc(Nc4nc(Nc5ccc(Cl)cc5)nc(Nc5ccc(Cl)cc5)n4)cc3)no2)cc1	13000 nM	36.9 µM	10500 nM	> 100 µM	17.3 µM	50.2 µM	1720 nM	5.3 µM	2570 nM	11.3 µM	6360 nM	43.8 µM	9280 nM	68.3 µM	5.2 µM	> 100 µM	7370 nM	96.7 µM	2870 nM	11 µM
Cc1nc2c(nc1C)C(=O)c1ccccc1C2=O		0.704 µM		41.5 µM		9.62 µM		32.1 µM		10.7 µM		4.38 µM		4.3 µM		8.3 µM		15 µM		6.57 µM
O=C(CCl)N1c2ccccc2Oc2ccc3ccccc3c21	1330 nM	2.91 µM	2200 nM	5.9 µM	1.81 µM	3.59 µM	310 nM	1.42 µM	614 nM	1.9 µM	2410 nM	5.92 µM	1530 nM	3.16 µM			1860 nM	3.59 µM	1140 nM	2.67 µM
COc1cc2nc(-c3ccc(C(F)(F)F)cc3)cc(OCCCN3CCC(O)CC3)c2cc1OC	2650 nM	11.8 µM	1030 nM	21.7 µM	3.14 µM	20.7 µM	1790 nM	16.7 µM	4150 nM	19.3 µM	1610 nM	3.83 µM	2280 nM	6.5 µM	0.667 µM	13.8 µM	4070 nM	19.9 µM	3850 nM	16.5 µM
COc1cc(C(=O)/C=C/c2sc(Cl)nc2Cl)cc(OC)c1OC	1590 nM	3.14 µM	1670 nM	3.12 µM	1.72 µM	3.27 µM	1840 nM	> 100 µM	1680 nM	3.96 µM	2090 nM	4.71 µM	2010 nM	4.23 µM	1.53 µM	3 µM	1800 nM	3.31 µM	2390 nM	5.86 µM
NC(CSC(c1ccccc1)(c1ccccc1)c1ccc2c(c1)OCO2)C(=O)O (configuration not stated)	979 nM	74.4 µM	625 nM	79.4 µM	7.22 µM	> 100 µM	406 nM	> 100 µM	208 nM	0.535 µM	352 nM	> 48.4 µM	2520 nM	> 100 µM	1.15 µM	> 81 µM	350 nM	3.49 µM	511 nM	27.4 µM
COc1ccc(NC(=O)c2cc(OC)cc(OC)c2)cc1		> 100 µM		> 100 µM		> 100 µM		> 100 µM		83.8 µM		> 64.5 µM		> 100 µM		> 100 µM		> 100 µM		> 100 µM
O[C@H]1[C@H]2c3cc4c(cc3CN3CCC(=C[C@@H]1O)[C@H]23)OCO4		10.7 µM		10.8 µM		22 µM		12 µM		3.07 µM		> 68.8 µM				5.32 µM		8.84 µM		2.12 µM
CC1=C(C#N)C23C(=O)c4ccccc4C(O)=C2C(=O)C=CC3(O)N1Cc1ccccc1 (configuration not stated)	22000 nM	47.1 µM	43600 nM	> 100 µM	30.3 µM	> 100 µM	32900 nM	> 100 µM	22900 nM	58.1 µM	17600 nM	> 100 µM	35000 nM	> 100 µM	15 µM	> 100 µM	> 100000 nM	> 100 µM	33000 nM	> 100 µM
CN(CC(=O)O)S(=O)(=O)c1ccc2ccccc2c1		> 100 µM		> 100 µM		> 100 µM		> 100 µM		> 100 µM		> 100 µM		> 100 µM		> 100 µM		> 100 µM		> 100 µM
O=C1c2cccnc2-c2nc(-c3ccccc3[N+](=O)[O-])cc3c2c1nc1ccccc13	3110 nM	14.8 µM	31600 nM	> 74.3 µM	6.99 µM	33.4 µM	> 28800 nM	> 100 µM	2100 nM	6.4 µM	25900 nM	> 85.9 µM	2010 nM	13.3 µM	12 µM	32.9 µM	19700 nM	45 µM	10300 nM	53.1 µM
Fc1ccc(Nc2ncnc3ccc(-c4cnc5[nH]ccc5c4)cc23)cc1Cl	2050 nM	7.84 µM	769 nM	> 100 µM	2.13 µM	10.6 µM	3480 nM	> 100 µM	12600 nM	69.1 µM	2730 nM	11.2 µM	13500 nM	> 100 µM	3.24 µM	> 76.5 µM	4870 nM	> 100 µM	16600 nM	68.2 µM
CCOc1ccccc1-n1c(CN2CCN(C(=O)COc3ccc(CNCCCCCCN4C5CCCC4CC(OC(=O)Nc4cc(C)ccc4OC)C5)cc3)CC2)nc2ccccc2c1=O (configuration not stated)	1700 nM	3.21 µM	1670 nM	3.33 µM	1.9 µM	3.45 µM	651 nM	1.36 µM	1790 nM	3.45 µM	1660 nM	3.27 µM	1880 nM	3.45 µM	2.23 µM	5.4 µM	1570 nM	3.15 µM	1990 nM	3.62 µM
CC1(C)COC(c2ccc(C(F)(F)F)cc2C(O)c2ccc3ccccc3c2)=N1 (configuration not stated)	> 100000 nM	> 100 µM	> 100000 nM	> 100 µM	> 100 µM	> 100 µM	> 100000 nM	> 100 µM		> 10 µM	> 10000 nM	> 10 µM and 42.5 µM	> 100000 nM	> 100 µM	> 100 µM	> 100 µM	> 100000 nM	> 100 µM	> 100000 nM	> 100 µM
CCOC(=O)C1=C(C)CC2C(=O)OC(=O)C2C1(C)C (configuration not stated)		> 100 µM		> 100 µM		> 100 µM		> 100 µM		> 100 µM		> 100 µM		> 100 µM		> 100 µM		> 100 µM		> 100 µM
CC1=C(C(=O)Nc2ccccc2C)C(c2ccco2)C(C(=O)Nc2ccccc2C)=C(C)N1C		> 100 µM		> 100 µM		> 100 µM		> 100 µM		> 100 µM		> 100 µM		> 100 µM				> 100 µM		> 100 µM
CCOC(=O)c1ncn2c1[nH]c(=S)c1ccccc12		> 100 µM		> 100 µM		> 100 µM		> 100 µM		> 100 µM		> 100 µM		> 100 µM		> 100 µM		> 100 µM		> 100 µM
CNC(=O)c1ccccc1Nc1nc(Nc2ccc(N3CCOCC3)cc2OC)ncc1Cl	405 nM	16.9 µM	274 nM	> 24.7 µM			4750 nM	> 90.5 µM	764 nM	9.66 µM	503 nM	11.1 µM	421 nM	> 100 µM	0.542 µM	> 40.8 µM	636 nM	> 43.2 µM	274 nM	2.5 µM
COc1ccc(/C=C\c2cc(OC)c3c(c2)OCO3)c(O)c1O		48.7 µM		40.4 µM		55 µM		27 µM		3.53 µM		36.8 µM		53.4 µM		59.8 µM		> 58 µM		42.6 µM
COc1ccc(-c2cc(=O)c3ccc(O)cc3o2)c(OC)c1OC		> 100 µM		> 100 µM				> 100 µM		82.8 µM		> 100 µM		> 100 µM				> 100 µM		> 100 µM
CCCCCCCC(=O)SCC/C=C/[C@@H]1CC(=O)NCc2cccc(n2)C2=N[C@@](C)(CS2)C(=O)N[C@@H](C(C)C)C(=O)N1	142 nM	2.37 µM	1750 nM	> 33.3 µM	0.771 µM	> 33.3 µM	658 nM	> 33.3 µM	120 nM	1.85 µM	804 nM	8.59 µM			14.3 µM	> 33.3 µM	1020 nM	7.48 µM	1030 nM	15.6 µM
Nc1ccc(C(=O)N/C(=C\c2ccc3c(c2)OCO3)c2nc3[nH]c(=S)[nH]c(=O)c3[nH]2)cc1		> 100 µM		> 100 µM		> 100 µM		> 100 µM		> 100 µM		> 100 µM				> 100 µM		> 100 µM		> 100 µM
O=C(N/C(=C\c1cc(Cl)ccc1Cl)c1nc2[nH]c(=S)[nH]c(=O)c2[nH]1)c1ccccc1		> 100 µM		> 79.6 µM		> 100 µM		> 62.6 µM		> 100 µM		> 100 µM				> 51 µM		30.7 µM		> 100 µM
